In DBAASP:
In brackets after ≈: the same amount, converted by molar mass.

Assays:
Assay in all cases: ≥ marks a high value that may be exact or a test limit, other limits are often not marked, values filed in µg/mL are converted to µM
[1] = test system: Bacillus cereus ACM 446
[2] = test system: Salmonella enterica subsp. enterica serovar Salford IMVS 1710
[3] = test system: Escherichia coli L361
[4] = test system: Escherichia coli O9
[5] = test system: Pseudomonas fluorescens
[6] = test system: Staphylococcus aureus NCTC 6571
[7] = test system: Listeria monocytogenes NCTC 7973
[8] = test system: Candida tropicalis IOC 4560
[9] = test system: Candida albicans MDM8
[10] = test system: Pseudomonas aeruginosa ATCC 27853
[11] = test system: Micrococcus luteus A270
[12] = test system: Serratia marcescens ATCC 4112
[13] = test system: Staphylococcus aureus ATCC 29213
[14] = test system: Bacillus subtilis ATCC 6633
[15] = test system: Bacillus megaterium ATCC 10778
[16] = test system: Escherichia coli SBS 363
[17] = test system: Enterobacter cloacae beta-12
[18] = test system: Enterobacter cloacae
[19] = test system: Klebsiella pneumoniae NDM-1
[20] = test system: Escherichia coli NDM-1
[21] = test system: Bacillus subtilis ATCC 23857
[22] = test system: Escherichia coli ATCC 25922
[23] = test system: Klebsiella oxytoca
[24] = test system: Morganella morganii
[25] = test system: Citrobacter freundii
[26] = test system: Enterococcus faecalis
[27] = test system: Staphylococcus aureus ATCC 1717
[28] = test system: Salmonella typhimurium ATCC 7731
[29] = test system: Staphylococcus aureus ATCC 43300
[30] = test system: Salmonella enterica subsp. enterica serovar Typhimurium ATCC 14028
[31] = test system: Enterococcus faecalis ATCC 29212
[32] = test system: Salmonella enterica subsp. enterica serovar Pullorum ATCC 7913
[33] = test system: Escherichia coli UB1005
[34] = test system: Pseudomonas aeruginosa PAO1
[35] = test system: Staphylococcus aureus ATCC 25923
[36] = test system: Escherichia coli 078
[37] = test system: Listeria monocytogenes CGMCC 1.1075
[38] = test system: Bacillus cereus CGMCC 1.932
[39] = test system: Acinetobacter baumannii
[40] = test system: Staphylococcus epidermidis ATCC 12228
[41] = test system: Bacillus subtilis CMCC 63501
[42] = test system: Escherichia coli K99
[43] = test system: Escherichia coli K88
[44] = test system: Salmonella enterica subsp. enterica serovar Typhimurium C77-31
[45] = test system: Salmonella enterica subsp. enterica serovar Typhi CMCC 50071
[46] = test system: Salmonella enterica subsp. enterica serovar Pullorum C79-13

Work on `CC[C@H](C)[C@H](NC(=O)[C@H](CO)NC(=O)[C@@H]1CCCN1C(=O)[C@H](C)NC(=O)CNC(=O)[C@H](CC(C)C)NC(=O)[C@H](CCCCN)NC(=O)[C@H](CCCCN)NC(=O)[C@H](CCSC)NC(=O)[C@H](CCCN=C(N)N)NC(=O)[C@H](Cc1c[nH]c2ccccc12)NC(=O)[C@H](CCC(N)=O)NC(=O)[C@H](Cc1c[nH]c2ccccc12)NC(=O)[C@H](CCCN=C(N)N)NC(=O)[C@H](CCCN=C(N)N)NC(=O)[C@H](CS)NC(=O)[C@H](CCCCN)NC(=O)[C@@H](N)Cc1ccccc1)C(=O)N[C@H](C(=O)N[C@@H](CS)C(=O)N[C@H](C(=O)N[C@@H](CCCN=C(N)N)C(=O)N[C@@H](CCCN=C(N)N)C(=O)N[C@@H](C)C(=O)N[C@@H](Cc1ccccc1)C(=O)N[C@@H](C)C(=O)O)C(C)C)[C@@H](C)O` [FKCRRWQWRMKKLGAPSITCVRRAFA] yielded an MIC [1] of 8 µM (≈ 25.6 µg/mL), an MIC [2] of 4 µM (≈ 12.8 µg/mL) and an MIC [3] of 4 µM (≈ 12.8 µg/mL). The MIC [4] was 8 µM (≈ 25.6 µg/mL), the MIC [5] was 6 µM (≈ 19.2 µg/mL) and the MIC [6] was 6 µM (≈ 19.2 µg/mL). It also gave an MIC [7] of 4 µM (≈ 12.8 µg/mL).
`CC(C)C[C@H](NC(=O)[C@H](C)NC(=O)CNC(=O)[C@H](CC(C)C)NC(=O)[C@@H](N)Cc1ccccc1)C(=O)N[C@@H](Cc1c[nH]c2ccccc12)C(=O)N[C@@H](CCCN=C(N)N)C(=O)N[C@H](C(=O)N[C@@H](C)C(=O)N[C@@H](CCCCN)C(=O)N[C@@H](CO)C(=O)N[C@H](C(=O)N[C@@H](Cc1ccccc1)C(N)=O)C(C)C)C(C)C` [FLGALWRVAKSVF] showed an MIC [8] of 1.6 µM (≈ 2.39 µg/mL), an MIC [9] of 1.6 µM (≈ 2.39 µg/mL) and an MIC [10] of 6.3 µM (≈ 9.4 µg/mL). The MIC [11] was 1.6 µM (≈ 2.39 µg/mL), the MIC [12] was 0.4 µM (≈ 0.597 µg/mL) and the MIC [13] was 1.6 µM (≈ 2.39 µg/mL). The MIC [14] was 0.8 µM (≈ 1.19 µg/mL), the MIC [15] was 0.8 µM (≈ 1.19 µg/mL) and the MIC [16] was 1.6 µM (≈ 2.39 µg/mL). It also gave an MIC [17] of 6.3 µM (≈ 9.4 µg/mL).
Work on `CC[C@H](C)[C@H](NC(=O)CN)C(=O)N[C@@H](CCCCN)C(=O)N[C@@H](C)C(=O)NCC(=O)N[C@H](C(=O)N[C@H](C(=O)N[C@H](C(=O)N[C@@H](CCCCN)C(=O)N[C@H](C(=O)N[C@@H](CCCCN)C(=O)N[C@@H](CCCCN)C(N)=O)[C@@H](C)CC)[C@@H](C)CC)[C@@H](C)CC)[C@@H](C)CC` [GIKAGIIIKIKK] yielded an MIC [18] of 22.6 µM (≈ 29 µg/mL), an MIC [19] of 22.6 µM (≈ 29 µg/mL) and an MIC [20] of 16 µM (≈ 20.5 µg/mL). For the same compound, the MIC [21] was 16 µM (≈ 20.5 µg/mL), the MIC [22] was 16 µM (≈ 20.5 µg/mL) and the MIC [23] was at least 32 µM. It also gave an MIC [24] of at least 128 µM, an MIC [25] of 16 µM (≈ 20.5 µg/mL) and an MIC [26] of at least 64 µM. For the same compound, the MIC [27] was at least 128 µM.
`CC(C)[C@H](NC(=O)[C@H](CCCN=C(N)N)NC(=O)[C@H](Cc1c[nH]c2ccccc12)NC(=O)[C@H](CCCN=C(N)N)NC(=O)[C@H](Cc1c[nH]c2ccccc12)NC(=O)[C@H](Cc1c[nH]c2ccccc12)NC(=O)[C@H](Cc1c[nH]c2ccccc12)NC(=O)[C@H](CCCN=C(N)N)NC(=O)[C@H](Cc1c[nH]c2ccccc12)NC(=O)[C@H](CCCN=C(N)N)NC(=O)CN)C(N)=O` [GRWRWWWRWRV] was tested, and the MIC [10] was 8 µM (≈ 13.8 µg/mL), the MIC [28] was 8 µM (≈ 13.8 µg/mL) and the MIC [29] was 4 µM (≈ 6.92 µg/mL). For the same compound, the MIC [30] was 8 µM (≈ 13.8 µg/mL), the MIC [31] was 2 µM (≈ 3.46 µg/mL) and the MIC [32] was 4 µM (≈ 6.92 µg/mL). For the same compound, the MIC [33] was 2 µM (≈ 3.46 µg/mL), the MIC [34] was 4 µM (≈ 6.92 µg/mL) and the MIC [35] was 4 µM (≈ 6.92 µg/mL). The MIC [36] was 4 µM (≈ 6.92 µg/mL), the MIC [37] was 1 µM (≈ 1.73 µg/mL) and the MIC [38] was 8 µM (≈ 13.8 µg/mL). It also gave an MIC [39] of 1 µM (≈ 1.73 µg/mL), an MIC [40] of 2 µM (≈ 3.46 µg/mL) and an MIC [41] of 4 µM (≈ 6.92 µg/mL). For the same compound, the MIC [42] was 2 µM (≈ 3.46 µg/mL) and the MIC [43] was 1 µM (≈ 1.73 µg/mL).
`NCCCC[C@H](NC(=O)[C@H](Cc1c[nH]c2ccccc12)NC(=O)[C@H](CCCN=C(N)N)NC(=O)[C@H](CCCN=C(N)N)NC(=O)[C@H](Cc1c[nH]c2ccccc12)NC(=O)[C@H](CCC(N)=O)NC(=O)[C@H](Cc1c[nH]c2ccccc12)NC(=O)[C@H](CCCN=C(N)N)NC(=O)[C@H](CCCN=C(N)N)NC(=O)[C@H](Cc1c[nH]c2ccccc12)NC(=O)[C@@H](N)CCCCN)C(N)=O` [KWRRWQWRRWK] showed an MIC [44] of 16 µM (≈ 28.3 µg/mL), an MIC [45] of at least 128 µM and an MIC [30] of 32 µM (≈ 56.7 µg/mL). The MIC [13] was 8 µM (≈ 14.2 µg/mL), the MIC [33] was 8 µM (≈ 14.2 µg/mL) and the MIC [35] was 32 µM (≈ 56.7 µg/mL). It also gave an MIC [46] of 16 µM (≈ 28.3 µg/mL) and an MIC [40] of 8 µM (≈ 14.2 µg/mL).
